According to patent US7091351B2, “Vanadium compounds for treating cancer” (Parker Hughes Institute, priority 1998, dated 2006):
Read-outs that look alike come from different tables or passages of the source.

Tests used:
Type in all cases: cell-based, human
[1] = test system: Ntera-2 testicular cancer cells; assay: MTT cytotoxicity assay of vanadocenes, NTERA-2 cells; details: 24 h, 1.9-250 μM
Outline: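 Cells seeded in triplicate, after 24 h exposed to two-fold serial dilutions of vanadocenes (1.9–250 μM; DMSO vehicle, 0.25% DMSO control) for 24 h. MTT added for 4 h at 37 °C, formazan dissolved in SDS/HCl overnight, OD read at 540 nm; IC50 values reported.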

[2] = test system: NALM-6 leukemia cells; assay: Mitochondrial transmembrane potential, JC-1 staining, flow cytometry
Method: To measure the changes in mitochondria, NALM-6 cells were incubated with compound 29 at concentrations ranging from 0.1 μM to 1 μM for 24 hr, 48 hr, 72 hr or 96 hr, stained with specific fluorescent dyes and analyzed with flow cytometer. Mitochondrial membrane potential (ΔΨm) was measured using two dyes including a lipophollic cation 5,5′,6,6′-tetrachloro-1,1′,3,3′-tetraethlybenzimidazolylcarbocyanine iodide (JC-1; Molecular probes, Eugene, Oreg.) and a cyanine dye, 1,1′,3,3,3′,3′-hexamethylindodicarbocyanine iodide [DiIC1(5); Molecular probes] as earlier described (22). JC-1 can enter the cells, and selectively mitochondria, and has been used to assess ΔΨm in a variety of studies (23,24). JC-1 is a monomer at 527 nm after being excited at 490 nm; with polarization of ΔΨm, J-aggregates are formed that shift emission to 590 nm (23, 24). This can be detected on a flow cytometer by assessing the green signal (at 527 nm) and green-orange signal (at 590 nm) simultaneously, creating an index of the number of cells polarized and depolarized mitochondria. The treated and control cells were washed and plated in a 6-well plate at 1×10^6 cells in fresh medium. JC-1 was added at a concentration of 10 μg/ml, and cells were incubated for 10 min in the dark at room temp. Cells were then washed twice with ice-cold PBS and immediately analyzed using Becton Dickinson (San Jose, Calif.) Calibur flow cytometer. At least 2×10^3 cells were analyzed to determine the percentage of cells with polarized and depolarized mitochondria. DiIC1(5), a cyanine dye is amphioatheic and cationic that concentrate in energized mitochondria and has been used in a variety of studies to measure the mitochondrial membrane potential (25–27). NALM-6 cells were stained with DiIC1(5) at 40 nM concentration for 30 min in the dark as described for JC-1. The cells were analyzed using Vantage Becton Dickinson cell sorter equipped with HeNe laser with excitation at 635 nm and the fluorescence was collected at 666 nm.

[3] = test system: NALM-6 cells; assay: Mitochondrial mass determination, NAO staining; details: 0.1-1 μM, 24-96 hr
Method: Relative mitochondrial mass was measured by using Becton Dickinson Calibur flow cytometry and the fluorescent stain 10-n-nonyl-acridine orange (NAO), which binds the mitochondrial phospholipid cardiolipin, that has been extensively used to provide an index of mitochondrial mass (28). 1×10^6 compound 29-treated NALM-6 cells at concentrations of 0.1 μM to 1 μM for 24 hr, 48 hr, 72 hr, or 96 hr were incubated with 30 μM of NAO in complete medium for 10 min at room temp in the dark, washed with ice-cold PBS and analyzed using log scale photomultiplier to detect the green fluorescence at 527 nm. Relative change in the mitochondrial mass was measured using the mean fluorescence value of mitochondria of compound 29-treated and vehicle-treated cells.

EC50 ([2]; 24 hr treatment, read-out: average EC50 for depolarization of mitochondria (JC-1 red/orange fluorescence), 24 hr) [µM]	EC50 ([2]; 48 hr treatment, read-out: average EC50 for depolarization of mitochondria (JC-1 red/orange fluorescence), 48 hr) [µM]	Molecule	IC50 [1] [µM]	fraction of JC-1 red/orange fluorescence-positive cells, 48 hr ([2]; 500 nM, 48 hr (vehicle 98.6%)) [%]	fraction of JC-1 red/orange fluorescence-positive cells, 72 hr ([2]; 500 nM, 72 hr (vehicle 98.6%)) [%]	mitochondrial mass (NAO staining intensity, treated versus untreated) [3]
–	–	[Cl-].[Cl-].[V+4].c1cc[cH-]c1.c1cc[cH-]c1 [VDC, VCp2Cl2]	74	–	–	–
4.2	0.5	bis(4,7-dimethyl-1,10-phenanthroline)sulfatooxovanadium(IV) [Compound 29]	–	56.1	8.4	virtually identical staining intensity of NAO
